Experimental data reported in paper PMC5218480 (PLoS ONE, 2017).

Test system: MV-4-11 cells
Experiment: Gene expression microarray analysis (Affymetrix PrimeView) and GSEA
Format: cell-based, human
Set-up: RFU PODN (11730768_x_at) / Fold change /veh PODN (11730768_x_at) / RFU LINC00158 (11744669_a_at) / Fold change /veh LINC00158 (11744669_a_at) / RFU DUSP10 (11751237_a_at) / Fold change /veh DUSP10 (11751237_a_at) / RFU ID3 (11757404_x_at) / Fold change /veh ID3 (11757404_x_at) / RFU PLEKHG5 (11737974_s_at) / Fold change /veh PLEKHG5 (11737974_s_at) / RFU LRRC4B (11730491_at) / Fold change /veh LRRC4B (11730491_at) / RFU GIMAP4 (11747438_a_at) / Fold change /veh GIMAP4 (11747438_a_at) / RFU KRT8 (11758183_x_at) / Fold change /veh KRT8 (11758183_x_at) / RFU CNN1 (11734310_a_at) / Fold change /veh CNN1 (11734310_a_at) / RFU VPS37D (11726825_at) / Fold change /veh VPS37D (11726825_at) / RFU C10orf10 (11716522_x_at) / Fold change /veh C10orf10 (11716522_x_at) / RFU KIR2DL2 /// KIR2DL4 /// KIR2DL5A /// KIR2DL5B /// KIR2DS1 /// KIR2DS2 /// KIR2DS3 /// KIR2DS4 /// KIR3DL3 /// KIR3DL3 /// KIR3DS1 (11738374_at) / Fold change /veh KIR2DL2 /// KIR2DL4 /// KIR2DL5A /// KIR2DL5B /// KIR2DS1 /// KIR2DS2 /// KIR2DS3 /// KIR2DS4 /// KIR3DL3 /// KIR3DL3 /// KIR3DS1 (11738374_at) / RFU C1QL1 (11718748_at) / Fold change /veh C1QL1 (11718748_at) / RFU TMPRSS4 (11747572_a_at) / Fold change /veh TMPRSS4 (11747572_a_at) / RFU HAMP (11756126_x_at) / Fold change /veh HAMP (11756126_x_at) / RFU RNFT2 (11725882_a_at) / Fold change /veh RNFT2 (11725882_a_at) / RFU NR4A2 (11747474_a_at) / Fold change /veh NR4A2 (11747474_a_at) / RFU ABCC12 (11746883_a_at) / Fold change /veh ABCC12 (11746883_a_at) / RFU TMEM136 (11760407_x_at) / Fold change /veh TMEM136 (11760407_x_at) / RFU CLDN22 /// WWC2 (11732394_at) / Fold change /veh CLDN22 /// WWC2 (11732394_at) / RFU HLA-DPB1 (11760878_x_at) / Fold change /veh HLA-DPB1 (11760878_x_at) / RFU SPINT1 (11716480_a_at) / Fold change /veh SPINT1 (11716480_a_at) / RFU GAP43 (11754022_s_at) / Fold change /veh GAP43 (11754022_s_at) / RFU A4GNT (11735810_at) / Fold change /veh A4GNT (11735810_at) / RFU PRB3 (11715151_x_at) / Fold change /veh PRB3 (11715151_x_at) / RFU TUBB4B (11761932_at) / Fold change /veh TUBB4B (11761932_at) / RFU CAPN14 (11732068_a_at) / Fold change /veh CAPN14 (11732068_a_at) / RFU TMCC2 (11721928_a_at) / Fold change /veh TMCC2 (11721928_a_at) / RFU IRGQ (11745062_a_at) / Fold change /veh IRGQ (11745062_a_at) / RFU FAM174B (11720279_a_at) / Fold change /veh FAM174B (11720279_a_at) / RFU TMPRSS4 (11748680_a_at) / Fold change /veh TMPRSS4 (11748680_a_at) / RFU FAM212B (11763350_a_at) / Fold change /veh FAM212B (11763350_a_at) / RFU PLEKHG5 (11743358_a_at) / Fold change /veh PLEKHG5 (11743358_a_at) / RFU ZSCAN30 (11745921_a_at) / Fold change /veh ZSCAN30 (11745921_a_at) / RFU CMKLR1 (11741424_a_at) / Fold change /veh CMKLR1 (11741424_a_at) / RFU LOC101060620 /// MAPK8IP1 (11723275_at) / Fold change /veh LOC101060620 /// MAPK8IP1 (11723275_at) / RFU SPTSSB (11747773_x_at) / Fold change /veh SPTSSB (11747773_x_at) / RFU PRSS12 (11739890_at) / Fold change /veh PRSS12 (11739890_at) / RFU BIN1 (11741810_x_at) / Fold change /veh BIN1 (11741810_x_at) / RFU WNT11 (11732464_a_at) / Fold change /veh WNT11 (11732464_a_at) / RFU C10orf10 (11716521_a_at) / Fold change /veh C10orf10 (11716521_a_at) / RFU C5orf56 (11738089_at) / Fold change /veh C5orf56 (11738089_at) / RFU CYB561 (11721691_x_at) / Fold change /veh CYB561 (11721691_x_at) / RFU ANKRD19P (11752326_a_at) / Fold change /veh ANKRD19P (11752326_a_at) / RFU OR2T12 /// OR2T33 /// OR2T8 (11738714_s_at) / Fold change /veh OR2T12 /// OR2T33 /// OR2T8 (11738714_s_at) / RFU VCAN (11748164_a_at) / Fold change /veh VCAN (11748164_a_at) / RFU JSRP1 (11732532_at) / Fold change /veh JSRP1 (11732532_at) / RFU KRTAP10-11 (11738290_x_at) / Fold change /veh KRTAP10-11 (11738290_x_at) / RFU MYO3A (11730013_a_at) / Fold change /veh MYO3A (11730013_a_at) / RFU EBF3 (11725865_a_at) / Fold change /veh EBF3 (11725865_a_at) / RFU CAMK2N1 (11719241_x_at) / Fold change /veh CAMK2N1 (11719241_x_at) / RFU C5orf56 (11738088_a_at) / Fold change /veh C5orf56 (11738088_a_at) / RFU OLFML3 (11715873_a_at) / Fold change /veh OLFML3 (11715873_a_at) / RFU LOC100653217 /// NTM (11731650_a_at) / Fold change /veh LOC100653217 /// NTM (11731650_a_at) / RFU MAPK11 (11762145_a_at) / Fold change /veh MAPK11 (11762145_a_at) / RFU FIZ1 (11724087_x_at) / Fold change /veh FIZ1 (11724087_x_at) / RFU OASL (11726364_x_at) / Fold change /veh OASL (11726364_x_at) / RFU SOX15 (11748057_x_at) / Fold change /veh SOX15 (11748057_x_at) / RFU CD79A (11719716_a_at) / Fold change /veh CD79A (11719716_a_at) / RFU HIST1H1D (11736915_at) / Fold change /veh HIST1H1D (11736915_at) / RFU CASKIN2 (11723855_a_at) / Fold change /veh CASKIN2 (11723855_a_at) / RFU LOC730098 (11760151_x_at) / Fold change /veh LOC730098 (11760151_x_at) / RFU OR4N2 (11742367_at) / Fold change /veh OR4N2 (11742367_at) / RFU PRRT2 (11749266_a_at) / Fold change /veh PRRT2 (11749266_a_at) / RFU SNX32 (11753110_a_at) / Fold change /veh SNX32 (11753110_a_at) / RFU CDHR5 (11726645_a_at) / Fold change /veh CDHR5 (11726645_a_at) / RFU RCAN1 (11760418_a_at) / Fold change /veh RCAN1 (11760418_a_at) / RFU FAM167A (11723789_a_at) / Fold change /veh FAM167A (11723789_a_at) / RFU FAM26E (11764081_at) / Fold change /veh FAM26E (11764081_at) / RFU ISYNA1 (11749810_s_at) / Fold change /veh ISYNA1 (11749810_s_at) / RFU ACY1 (11761880_at) / Fold change /veh ACY1 (11761880_at) / RFU 11764098_at / Fold change /veh 11764098_at / RFU SAMD14 (11745864_x_at) / Fold change /veh SAMD14 (11745864_x_at) / RFU NPB (11741838_a_at) / Fold change /veh NPB (11741838_a_at) / RFU TMPRSS6 (11731388_a_at) / Fold change /veh TMPRSS6 (11731388_a_at) / RFU KRTAP10-2 (11738614_at) / Fold change /veh KRTAP10-2 (11738614_at) / RFU ARHGAP8 /// PRR5-ARHGAP8 (11727945_x_at) / Fold change /veh ARHGAP8 /// PRR5-ARHGAP8 (11727945_x_at) / RFU KRTAP5-7 /// NADSYN1 (11734609_at) / Fold change /veh KRTAP5-7 /// NADSYN1 (11734609_at) / RFU RASL12 (11751679_a_at) / Fold change /veh RASL12 (11751679_a_at) / RFU CDKN2B (11736163_a_at) / Fold change /veh CDKN2B (11736163_a_at) / RFU PRF1 (11729649_at) / Fold change /veh PRF1 (11729649_at) / RFU, ZNF638 /// ZNF638-IT1 / Fold change vs veh, ZNF638 /// ZNF638-IT1 / RFU, PANK3 / Fold change vs veh, PANK3 / RFU, SH3YL1 / Fold change vs veh, SH3YL1 / RFU, ZEB2 / Fold change vs veh, ZEB2 / RFU, NRIP1 / Fold change vs veh, NRIP1 / RFU, PTTG1IP / Fold change vs veh, PTTG1IP / RFU, CAPN2 / Fold change vs veh, CAPN2 / RFU, MED14 / Fold change vs veh, MED14 / RFU, SNORA58 / Fold change vs veh, SNORA58 / RFU, C1orf63 / Fold change vs veh, C1orf63 / RFU, LRRFIP1 / Fold change vs veh, LRRFIP1 / RFU, NDUFAF7 / Fold change vs veh, NDUFAF7 / RFU, SLC12A2 / Fold change vs veh, SLC12A2 / RFU, IBTK / Fold change vs veh, IBTK / RFU, ESF1 / Fold change vs veh, ESF1 / Fold change vs veh, TMEM50B / RFU, TAOK1 / Fold change vs veh, TAOK1 / RFU, ACBD3 / Fold change vs veh, ACBD3 / RFU, TMA16 / Fold change vs veh, TMA16 / RFU, RWDD3 / Fold change vs veh, RWDD3 / RFU, BCAT1 / Fold change vs veh, BCAT1 / RFU, EDEM3 / Fold change vs veh, EDEM3 / RFU, TMEM33 / Fold change vs veh, TMEM33 / RFU, WDR75 / Fold change vs veh, WDR75 / RFU, AHCTF1 / Fold change vs veh, AHCTF1 / RFU, TFRC / Fold change vs veh, TFRC / RFU, ZDHHC17 / Fold change vs veh, ZDHHC17 / RFU, NOM1 / Fold change vs veh, NOM1 / RFU, ARL8B / Fold change vs veh, ARL8B / RFU, ZBTB11 / Fold change vs veh, ZBTB11 / RFU, TAMM41 / Fold change vs veh, TAMM41 / RFU, KIAA1704 /// LOC100996395 / Fold change vs veh, KIAA1704 /// LOC100996395 / RFU, ING1 / Fold change vs veh, ING1 / RFU, TRMT61B / Fold change vs veh, TRMT61B / RFU, FUBP3 / Fold change vs veh, FUBP3 / RFU, TP53 / Fold change vs veh, TP53 / RFU, TNKS2 / Fold change vs veh, TNKS2 / RFU, ZFP14 / Fold change vs veh, ZFP14 / RFU, ACTR2 / Fold change vs veh, ACTR2 / RFU, PPP3R1 / Fold change vs veh, PPP3R1 / RFU, PIK3R1 / Fold change vs veh, PIK3R1 / RFU, HNRNPA1 / Fold change vs veh, HNRNPA1 / RFU, RNF170 / Fold change vs veh, RNF170 / RFU, ZNF28 / Fold change vs veh, ZNF28 / RFU, RNGTT / Fold change vs veh, RNGTT / RFU, OGT / Fold change vs veh, OGT / RFU, BRD1 / Fold change vs veh, BRD1 / RFU, MARS / Fold change vs veh, MARS / RFU, ZNF655 / Fold change vs veh, ZNF655 / RFU, FAHD1 / Fold change vs veh, FAHD1 / RFU, BDP1 / Fold change vs veh, BDP1 / RFU, LRRCC1 / Fold change vs veh, LRRCC1 / RFU, ARID1A / Fold change vs veh, ARID1A / RFU, ZNF146 / Fold change vs veh, ZNF146 / RFU, ZNF330 / Fold change vs veh, ZNF330 / RFU, GPN3 / Fold change vs veh, GPN3 / RFU, C9orf123 / Fold change vs veh, C9orf123 / RFU, N4BP2L2 / Fold change vs veh, N4BP2L2 / RFU, ARFIP1 / Fold change vs veh, ARFIP1 / RFU, FAM179B / Fold change vs veh, FAM179B / RFU, BCL10 / Fold change vs veh, BCL10 / RFU, UHRF1BP1L / Fold change vs veh, UHRF1BP1L / RFU, BET1 / Fold change vs veh, BET1 / RFU, CNOT2 / Fold change vs veh, CNOT2 / RFU, ZNF268 / Fold change vs veh, ZNF268 / Fold change vs veh, ZNF507 / RFU, DGCR2 / Fold change vs veh, DGCR2 / RFU, WDSUB1 / Fold change vs veh, WDSUB1 / Fold change vs veh, HSP90B1 /// MIR3652 / RFU, ADSS / Fold change vs veh, ADSS / RFU, GK / Fold change vs veh, GK / RFU, ZNF148 / Fold change vs veh, ZNF148 / RFU, TAF9 / Fold change vs veh, TAF9 / RFU, SLC1A5 / Fold change vs veh, SLC1A5 / RFU, SLMO2 / Fold change vs veh, SLMO2 / RFU, ABCC4 / Fold change vs veh, ABCC4 / RFU, LOC101060439 /// RAP1B / Fold change vs veh, LOC101060439 /// RAP1B / RFU, RFX7 / Fold change vs veh, RFX7 / RFU, GTPBP10 / Fold change vs veh, GTPBP10 / RFU, CNEP1R1 / Fold change vs veh, CNEP1R1 / RFU, BIVM-ERCC5 /// ERCC5 / Fold change vs veh, BIVM-ERCC5 /// ERCC5 / RFU, ILF3 / Fold change vs veh, ILF3 / RFU 11762660_at / Fold change /veh 11762660_at / RFU VCAN (11757783_s_at) / Fold change /veh VCAN (11757783_s_at) / RFU DDX43 (11728927_at) / Fold change /veh DDX43 (11728927_at) / RFU KRT8 (11758188_x_at) / Fold change /veh KRT8 (11758188_x_at) / RFU NKD1 (11759106_at) / Fold change /veh NKD1 (11759106_at) / RFU SRD5A1 (11742802_a_at) / Fold change /veh SRD5A1 (11742802_a_at) / RFU TPSAB1 /// TPSB2 (11721975_s_at) / Fold change /veh TPSAB1 /// TPSB2 (11721975_s_at) / RFU GSTM3 (11746129_a_at) / Fold change /veh GSTM3 (11746129_a_at) / RFU IL23R (11737362_x_at) / Fold change /veh IL23R (11737362_x_at) / RFU TMEM51 (11727254_a_at) / Fold change /veh TMEM51 (11727254_a_at) / RFU PIWIL2 (11732686_x_at) / Fold change /veh PIWIL2 (11732686_x_at) / RFU ORM1 (11744905_x_at) / Fold change /veh ORM1 (11744905_x_at) / RFU CCDC152 (11743942_at) / Fold change /veh CCDC152 (11743942_at) / RFU ECM1 (11717891_a_at) / Fold change /veh ECM1 (11717891_a_at) / RFU IL23R (11748794_a_at) / Fold change /veh IL23R (11748794_a_at) / RFU TNFAIP8L3 (11732012_x_at) / Fold change /veh TNFAIP8L3 (11732012_x_at) / RFU MBOAT4 (11741988_at) / Fold change /veh MBOAT4 (11741988_at) / RFU 11764193_at / Fold change /veh 11764193_at / RFU TMEM53 (11763286_at) / Fold change /veh TMEM53 (11763286_at) / RFU MAGEB2 (11727129_at) / Fold change /veh MAGEB2 (11727129_at) / RFU TMEM200A (11744735_a_at) / Fold change /veh TMEM200A (11744735_a_at) / RFU CCDC152 (11751479_a_at) / Fold change /veh CCDC152 (11751479_a_at) / RFU FAM211A (11726209_a_at) / Fold change /veh FAM211A (11726209_a_at) / RFU RGS16 (11746705_a_at) / Fold change /veh RGS16 (11746705_a_at) / RFU VCAN (11755009_s_at) / Fold change /veh VCAN (11755009_s_at) / RFU RHOB (11743442_s_at) / Fold change /veh RHOB (11743442_s_at) / RFU RGS16 (11720943_a_at) / Fold change /veh RGS16 (11720943_a_at) / RFU RGS16 (11720944_at) / Fold change /veh RGS16 (11720944_at) / RFU, VPS4B / Fold change vs veh, VPS4B / RFU, CREB1 / Fold change vs veh, CREB1 / RFU, DNAJC13 / Fold change vs veh, DNAJC13 / RFU, GNAQ / Fold change vs veh, GNAQ / RFU, CDK5R1 / Fold change vs veh, CDK5R1 / RFU, ZRANB3 / Fold change vs veh, ZRANB3 / RFU, CUL4A / Fold change vs veh, CUL4A / RFU, CCNY / Fold change vs veh, CCNY / RFU, UFL1 / Fold change vs veh, UFL1 / RFU, COG3 / Fold change vs veh, COG3 / RFU, DIAPH2 / Fold change vs veh, DIAPH2 / RFU, SKA2 / Fold change vs veh, SKA2 / RFU, AFF3 / Fold change vs veh, AFF3 / RFU, LMF1 / Fold change vs veh, LMF1 / RFU, IPO11 / Fold change vs veh, IPO11 / RFU, DFFB / Fold change vs veh, DFFB / RFU, FOXP1 / Fold change vs veh, FOXP1 / RFU, CARD8 / Fold change vs veh, CARD8 / RFU, STRN3 / Fold change vs veh, STRN3 / RFU, ADK / Fold change vs veh, ADK / RFU, RASSF2 / Fold change vs veh, RASSF2 / RFU, WIPF1 / Fold change vs veh, WIPF1 / RFU, LARP1B / Fold change vs veh, LARP1B / RFU, RASA1 / Fold change vs veh, RASA1 / RFU, RB1 / Fold change vs veh, RB1 / RFU, PPFIA1 / Fold change vs veh, PPFIA1 / RFU, MAT2A / Fold change vs veh, MAT2A / RFU, CCT5 / Fold change vs veh, CCT5 / RFU, WDR92 / Fold change vs veh, WDR92 / RFU, CUX1 / Fold change vs veh, CUX1 / RFU, TTC7A / Fold change vs veh, TTC7A / RFU, TMEM135 / Fold change vs veh, TMEM135 / RFU, DEPTOR / Fold change vs veh, DEPTOR / RFU, CPM / Fold change vs veh, CPM / RFU, DNAJB6 / Fold change vs veh, DNAJB6 / RFU, CACNA2D3 / Fold change vs veh, CACNA2D3 / RFU, DTX4 / Fold change vs veh, DTX4 / RFU, TFCP2 / Fold change vs veh, TFCP2 / RFU, GMCL1 /// GMCL1P1 / Fold change vs veh, GMCL1 /// GMCL1P1 / RFU, AEBP2 / Fold change vs veh, AEBP2 / RFU, SNHG1 /// SNORD22 /// SNORD25 /// SNORD26 /// SNORD27 /// SNORD28 /// SNORD29 /// SNORD31 / Fold change vs veh, SNHG1 /// SNORD22 /// SNORD25 /// SNORD26 /// SNORD27 /// SNORD28 /// SNORD29 /// SNORD31 / Fold change (Aza/veh), C12orf56 (ProbeSet 11735607_a_at) / Fold change (ACY-1035/veh), C12orf56 (ProbeSet 11735607_a_at) / Fold change (Aza/veh), FGFR1OP (ProbeSet 11751329_s_at) / Fold change (ACY-1035/veh), FGFR1OP (ProbeSet 11751329_s_at) / Fold change (Aza/veh), VPS36 (ProbeSet 11739960_a_at) / Fold change (ACY-1035/veh), VPS36 (ProbeSet 11739960_a_at) / RFU SYPL1 (11715823_x_at) / Fold change /veh SYPL1 (11715823_x_at) / RFU IGFBP7 (11715501_s_at) / Fold change /veh IGFBP7 (11715501_s_at) / RFU REEP3 (11722064_at) / Fold change /veh REEP3 (11722064_at) / RFU IGLL1 (11728026_x_at) / Fold change /veh IGLL1 (11728026_x_at): dose or concentration left out as unconfirmed
Conditions: MV-4-11 cells, 48 hours

SMILES: Nc1ncn([C@@H]2O[C@H](CO)[C@@H](O)[C@H]2O)c(=O)n1 [azacitidine]
- RFU VCAN (11755009_s_at): 15.18 RFU
